Laboratory results as given in PMC8624133, “10th Trends in Medical Mycology Held on 8 to 11 October 2021, Aberdeen, Scotland, Organized by the European Confederation of Medical Mycology (ECMM)” (Journal of Fungi, 2021).
≈ marks a conversion by molar mass, not a printed value. Where “and” joins values, the source holds several entries; their conditions need not be identical. Equal values may be shown once. Read-outs that look alike come from different tables or passages of the source.

Tests used:
Rhizopus arrhizus = assay: E test; format: cell-based
[1] = test system: Candida sp. and other yeast isolates, planktonic; assay: MIC of catheter yeast isolates, planktonic form; format: cell-based; settings: read-out: Minimum Inhibitory Concentrations (MIC)
[2] = test system: sessile cells of yeast mono and dual-species biofilms; assay: MIC of catheter yeast isolates, mono and dual-species biofilms; format: cell-based; settings: range
R. delemar 99–880 = assay: CLSI M38 in vitro susceptibility; format: cell-based, Rhizopus delemar; settings: Rhizopus delemar, read-out: MIC at 100% inhibition of growth
Procedure: Methods & Materials: In vitro susceptibility was conducted by the CLSI M38 method using a clinical isolate of Rhizopus delemar (a common cause of mucormycosis). ICR mice were immunosuppressed with cyclophosphamide and cortisone acetate on days −2, +3, and +8, relative to infection with intratracheally instilled R. delemar. […] Mice survival through Day +21 served as the primary endpoint.

C. glabrata = assay: Antifungal susceptibility testing of blood culture isolate; format: cell-based, Candida glabrata; settings: Nakaseomyces glabratus
From the text: Case presentation: A patient with a surgically corrected Tetralogy of Fallot and pulmonary valve replacement (BioPulmonic Conduit) was admitted to the cardiology ward for treatment of their progessively worsening symptomatic heart failure. Their medical history reports multiple other co-morbidities including supravalvular (prothetic pulmonary valve) stenosis, supraventricular tachycardia, atrial fibrillation, diabetes mellitus type I, and intellectual disability. No history of IV drug use or recent immunosuppressive therapy was reported. On admission they received diuretic treatment and a percutaneous intervention was planned to treat the supravalvular pulmonary stenosis. However, ten days after admission they developed fever (40.5 °C) with elevated C-reactive protein (237.9 mg/L) and leukocytosis (14.0 × 10^9/L). […] Anidulafungine IV was started and follow-up bloodcultures were taken routinely. The patient improved clinically and their inflammation markers normalized. However, the bloodcultures were persistently positive, albeit with periods of negative cultures, despite adequate treatment with high-dose anidulafungin 200 mg IV daily. International guidelines recommend surgery to treat Candida prostethic valve infective endocarditis and/or long-term suppressive therapy with antifungal drugs. […]

Candida sp. = format: cell-based
C. glabrata isolates = assay: Rapid XTT assay based on EUCAST E.Def 7.3; format: cell-based, Candida glabrata
C. tropicalis = format: cell-based, Candida tropicalis; settings: all successive strains
C. albicans = assay: […] candidemia survey, susceptibility according to CLSI; format: cell-based, Candida albicans
C. auris = assay: ARIA surveillance, CLSI M27 broth microdilution; format: cell-based, Candida auris; settings: CDC tentative breakpoints
[3] = test system: Cryptococcus bacillisporus (AFLP5/VGIII); assay: E-test method; format: cell-based
eumycetoma = settings: in vivo; cited from earlier work
From the text: Mycetoma: Mycetoma is a chronic, progressive, implantation inflammatory disease characterised by severe and stigmatising deformities, disability, and high morbidity. The disease is caused by fungi (eumycetoma) and several Actinomycetales members (actinomycetoma). Its estimative global burden is 9000 cases. There are no robust epidemiological studies on mycetoma in SA, but it is tconsidered the third most prevalent endemic IM in SA, especially among low socioeconomic adult males living in rural areas from Argentina, Brazil, Colombia and Venezuela, where the principal agents are Madurella spp. a ...

yeasts = assay: CLSI M27-A3 MIC; format: cell-based
[4] = Voriconazole exposure during ECMO, retrospective; format: in vivo, human
F. solani (FS) biofilms = assay: Mature biofilm damage, XTT metabolic reduction assay; settings: Fusarium solani, 24 h, read-out: BF MIC50

## C[C@@H]1[C@H](O)[C@@H](C)/C=C/C=C/C=C/C=C/C=C/C=C/C=C/[C@H](O[C@@H]2O[C@H](C)[C@@H](O)[C@H](N)[C@@H]2O)C[C@@H]2O[C@](O)(C[C@@H](O)C[C@@H](O)[C@H](O)CC[C@@H](O)C[C@@H](O)CC(=O)O[C@H]1C)C[C@H](O)[C@H]2C(=O)O [amphotericin B]
Rhizopus arrhizus
  MIC: > 32 µg/mL
[1]
  MIC: 30 to 1000 µg/mL
[2]
  MIC: 0.25 to 8 µg/mL
R. delemar 99–880
  MIC: 0.06 µg/mL (≈ 0.0649 µM)
C. glabrata
  MIC: 0.38 µg/mL (≈ 0.411 µM)

## OC(Cn1cncn1)(Cn1cncn1)c1ccc(F)cc1F [fluconazole]
Candida sp.; 2019
  Susceptibility to fluconazole (share of isolates): 66%
Candida sp.; full 12 month period in 2020
  Susceptibility to fluconazole (share of isolates): 82%
Candida sp.; overall, entire period reviewed
  Susceptibility to fluconazole (share of isolates): 74%
Candida sp.; to date in January–April 2020
  Susceptibility to fluconazole (share of isolates): 100%
C. glabrata isolates
  XTT-absorbance in drug-treated wells: 0.67 ± 0.15 and 0.51 ± 0.08
C. tropicalis
  susceptibility category: susceptible
C. albicans
  non-susceptibility: 1%
C. auris
  susceptible: 56.3%
[3]
  antifungal susceptibility: low response

## CCC(C)n1ncn(-c2ccc(N3CCN(c4ccc(OCC5COC(Cn6cncn6)(c6ccc(Cl)cc6Cl)O5)cc4)CC3)cc2)c1=O (stereo not shown) [itraconazole]
eumycetoma
  Cure rate: 25–35%
yeasts; four sensitive isolates
  MIC: 0.03 µg/mL (≈ 0.0425 µM)
yeasts; the other isolates, drug resistance
  MIC: 0.06 to 16 µg/mL (≈ 0.085 to 22.7 µM)

## C[C@@H](c1ncncc1F)[C@](O)(Cn1cncn1)c1ccc(F)cc1F [voriconazole]
[4]; during ECMO
  samples with subtherapeutic concentration (<2 mg/L): 56%
[4]; under ECMO
  median trough concentration [IQR]: 2.4 [1.2–4.7] mg/L
[4]; without ECMO
  median trough concentration [IQR]: 2.5 [1.4–3.9] mg/L
  samples with subtherapeutic concentration (<2 mg/L): 39%
F. solani (FS) biofilms
  MIC50: > 256 µg/mL
